What all share (experiment): microbe, parasite or virus in culture
Experiment [1] deals with E. coli HB4 ΔompC/F (CTX-M-14 + OXA-48). In kind it is cell-based, Escherichia coli. The settings on record: for MIC: Escherichia coli. The method, boiled down: (§1)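 Against isogenic E. coli expressing OXA-48, or OXA-48 with CTX-M-14, in TG1 or the low-permeability HB4 background, MICs were measured in triplicate. Inhibitors at 4 mg/L were given with ertapenem or ceftazidime. EUCAST 13.0 criteria were applied.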

Experiment [2] has as its system E. coli HB4 ΔompC/F (OXA-48). In kind it is cell-based, Escherichia coli. The settings on record: Escherichia coli. The procedure, abridged:
as §1

Experiment [3] has as its system E. coli HB4 ΔompC/F. In kind it is cell-based, Escherichia coli. The following applies: Escherichia coli. The method, boiled down:
as §1

In experiment [4] the test system is E. coli HB4 ΔompC/F (CTX-M-14). In kind it is cell-based, Escherichia coli. The settings on record: Escherichia coli.
The subject of experiment [5] is K. pneumoniae strain 237 (MLST 147, No ESBL). It is filed as cell-based. The settings on record: Klebsiella pneumoniae; K. pneumoniae 237; β-lactamase inhibitor alone; read-out: MIC. The method, boiled down: (§2)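 MICs were determined in triplicate against WGS-characterized OXA-48-positive clinical isolates, with EUCAST 13.0 breakpoints applied. Each inhibitor was tested at 4 mg/L combined with ertapenem or ceftazidime as reporter substrates; compounds were also tested alone.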

The subject of experiment [6] is E. cloacae strain 231 (MLST 171, No ESBL). In kind it is cell-based. The settings on record: Enterobacter cloacae; E. cloacae 231; β-lactamase inhibitor alone; read-out: MIC. The method, boiled down: as §2
For experiment [7], the system named is K. pneumoniae strain 125 (MLST 307, ESBL). It is filed as cell-based. The following applies: Klebsiella pneumoniae. The procedure, abridged: as §2
Experiment [8] has as its system K. pneumoniae strain 170 (MLST 307, No ESBL). In kind it is cell-based. The following applies: Klebsiella pneumoniae; K. pneumoniae 170; β-lactamase inhibitor alone; read-out: MIC. The procedure, abridged:
as §2

Experiment [9] relates to E. coli strain 103 (MLST 10, ESBL). In kind it is cell-based. The following applies: Escherichia coli. The method, boiled down:
as §2

Experiment [10] deals with E. coli strain 264 (MLST 131, No ESBL). In kind it is cell-based. The settings on record: Escherichia coli; E. coli 264; β-lactamase inhibitor alone; read-out: MIC. The method, boiled down:
as §2

Experiment [11] has as its system K. pneumoniae strain 23 (MLST 392, ESBL). In kind it is cell-based. The settings on record: Klebsiella pneumoniae. The procedure, abridged:
as §2

Experiment [12] deals with K. pneumoniae strain 497 (MLST 11, No ESBL). It is filed as cell-based. The following applies: Klebsiella pneumoniae; K. pneumoniae 497; β-lactamase inhibitor alone; read-out: MIC.
In experiment [13] the test system is E. cloacae strain 235 (MLST 171, ESBL). In kind it is cell-based. The following applies: Enterobacter cloacae. The procedure, abridged: as §2
Experiment [14] concerns E. coli strain 177 (MLST 131, ESBL). In kind it is cell-based. The settings on record: Escherichia coli. The procedure, abridged:
as §2

The subject of experiment [15] is K. pneumoniae strain 238 (MLST 15, ESBL). In kind it is cell-based. The following applies: Klebsiella pneumoniae. The method, boiled down:
as §2

For experiment [16], the system named is E. cloacae strain 272 (MLST 78, ESBL). In kind it is cell-based. The settings on record: Enterobacter cloacae. The method, boiled down: as §2
Experiment [17] has as its system K. pneumoniae strain 19 (MLST 11, ESBL). It is filed as cell-based. The following applies: Klebsiella pneumoniae. The method, boiled down:
as §2

Experiment [18] has as its system E. cloacae strain 281 (MLST 78, No ESBL). It is filed as cell-based. The following applies: Enterobacter cloacae; E. cloacae 281; β-lactamase inhibitor alone; read-out: MIC. The procedure, abridged:
as §2

The test system of experiment [19] is E. coli strain 224 (MLST 127, No ESBL). It is filed as cell-based. The following applies: Escherichia coli; E. coli 224; β-lactamase inhibitor alone; read-out: MIC. The procedure, abridged: as §2
Experiment [20] has as its system K. pneumoniae strain 194 (MLST 392, No ESBL). In kind it is cell-based. The following applies: Klebsiella pneumoniae; K. pneumoniae 194; β-lactamase inhibitor alone; read-out: MIC. The method, boiled down:
as §2

Experiment [21] concerns K. pneumoniae strain 413 (MLST 147, ESBL). In kind it is cell-based. The following applies: Klebsiella pneumoniae. The method, boiled down: as §2
Experiment [22] concerns K. pneumoniae strain 71 (MLST 15, No ESBL). It is filed as cell-based. The settings on record: Klebsiella pneumoniae; K. pneumoniae 71; β-lactamase inhibitor alone; read-out: MIC. The method, boiled down:
as §2

Values after ≈ are worked out from the molar mass of the structure shown.

Turning to `O=C(O)c1c(F)ccc2c1OB(O)[C@@H]1C[C@H]21` [Xeruborbactam, xeruborbactam], in [1] (E. coli HB4 coproducing CTX-M-14 and OXA-48, BLI 4 mg/L), the “decrease of ertapenem MIC with BLI” value stood at 256 fold. Also, the MIC in experiment [1] came to 16 µg/mL (≈ 72.1 µM); in experiment [2], 16 µg/mL (≈ 72.1 µM); in [3], 16 µg/mL (≈ 72.1 µM); in experiment [4], 16 µg/mL (≈ 72.1 µM); in experiment [5] it was 64 µg/mL; in experiment [6], 32 µg/mL. Moreover, the MIC came to 32 µg/mL in [7]; 32 µg/mL in [8]; 64 µg/mL in experiment [9]; 32 µg/mL in experiment [10]; 32 µg/mL in experiment [11]; 64 µg/mL in experiment [12]. The MIC in experiment [13] was no less than 128 µg/mL; in experiment [14], 64 µg/mL; in experiment [15], 64 µg/mL; in experiment [16], 32 µg/mL; in experiment [17], 32 µg/mL; in experiment [18], 32 µg/mL. The MIC in experiment [19] turned out to be 32 µg/mL; in experiment [20] it was 32 µg/mL; in experiment [21], 64 µg/mL; in experiment [22] it was 32 µg/mL.
Turning to `O=C(O)C[C@@H]1CC[C@H](NC(=O)Cc2cccs2)B(O)O1` [Vaborbactam, vaborbactam], the MIC in [1], in experiment [2], in [3], in experiment [4], in experiment [5] and in experiment [6] was no less than 128 µg/mL each time. Also, the MIC in [7], in [8], in experiment [9], in [10], in [11] and in [12] was no less than 128 µg/mL throughout. The MIC in [13], in [14], in experiment [15], in experiment [16], in experiment [17] and in [18] was no less than 128 µg/mL each time. For the same compound, the MIC in [19], in [20], in experiment [21] and in experiment [22] was no less than 128 µg/mL throughout.

The values are drawn from paper PMC11823609, “Advancements in the fight against globally distributed OXA-48 carbapenemase: evaluating the new generation of carbapenemase inhibitors” (Antimicrobial Agents and Chemotherapy, 2025).
